# Data from ChEMBL document CHEMBL1145186, “Extravascular transport of drugs in tumor tissue: effect of lipophilicity on diffusion of tirapazamine analogues in multicellular layer cultures” (J Med Chem, 2005).
# Assay: Partition coefficient (logP) of the compound
# Format: physicochemical
row,SMILES,logP
1,Nc1n[n+]([O-])c2cc(Cl)ccc2[n+]1[O-],0.441
2,Cc1ccc2c(c1)[n+]([O-])c(N)n[n+]2[O-],0.068
3,O=c1c2ccccc2[nH]c2ccccc12 [ACRIDONE],2.98
4,Cc1ccc2c(c1)[n+]([O-])nc(N)[n+]2[O-],0.127
5,CS(=O)(=O)c1cccc2c1[n+]([O-])nc(N)[n+]2[O-],-1.38
6,COCCc1cccc(Nc2n[n+]([O-])c3ccccc3[n+]2[O-])c1,1.51
7,Cc1cccc2c1[n+]([O-])nc(N)[n+]2[O-],0.24
8,Nc1n[n+]([O-])c2c(Cl)cccc2[n+]1[O-],0.166
9,Nc1n[n+]([O-])c2cc(C(F)(F)F)ccc2[n+]1[O-],0.82
10,OC[C@@H](O)[C@@H](O)[C@H](O)[C@H](O)CO [MANNITOL],-2.62
11,Nc1n[n+]([O-])c2c(C(F)(F)F)cccc2[n+]1[O-],0.48
12,NC(N)=O [UREA],-2.01
13,[O-][n+]1nc(Nc2ccccc2)[n+]([O-])c2ccccc21,1.43
14,Nc1n[n+]([O-])c2cccc(Cl)c2[n+]1[O-],-0.102
15,Nc1n[n+]([O-])c2ccccc2[n+]1[O-] [TIRAPAZAMINE],-0.342
16,CCN(CC)c1cccc2c1[n+]([O-])nc(N)[n+]2[O-],0.83
17,CS(=O)(=O)c1ccc2c(c1)[n+]([O-])nc(N)[n+]2[O-],-1.15
